Data: the PolyMetriX glass transition set
± gives the standard deviation of the reports.

Compound	glass transition temperature
*c1ccc(Oc2ccc3ccccc3c2-c2c(Oc3ccc(N4C(=O)c5ccc(NC(=O)Nc6cccc7c(NC(=O)Nc8ccc9c(c8)C(=O)N(*)C9=O)cccc67)cc5C4=O)cc3)ccc3ccccc23)cc1 (repeat unit)	297.00 °C
*Oc1ccc(NC(=O)CCCCCCCC(=O)Nc2ccc(*)cc2)cc1 (repeat unit)	160.00 °C
*c1ccc(Oc2ccc(C3(c4ccc(Oc5ccc(-c6ccc(*)s6)cc5C(F)(F)F)cc4)c4ccccc4-c4ccccc43)cc2)c(C(F)(F)F)c1 (repeat unit)	169.00 °C
*c1ccc(OCCCCCCCCCCCOC(=O)CCCCCCCCC(=O)OCCCCCCCCCCCOc2ccc(-c3nnc(*)s3)cc2)cc1 (repeat unit)	52.00 °C
*Oc1ccc(Oc2ccc(/C=N/CCCCCC/N=C/c3ccc(*)cc3)cc2)cc1 (repeat unit)	111.00 °C
*CCCCCCCCCNC(=O)CCCCCCCCCCCCCCCCCCC(=O)N* (repeat unit)	42.00 °C
*OC(=O)c1cccc(OCCCCCCCCCCOc2cccc(C(=O)OC3COC4C(*)COC34)c2)c1 (repeat unit)	30.00 °C
*c1ccc(Oc2cccc(Oc3ccc(-n4c(=O)c5cc6c(=O)n(*)c(=O)c6cc5c4=O)cc3)c2C#N)cc1 (repeat unit)	328.00 °C
*Oc1ccc(CC(NC(=O)CCc2ccc(OC(=O)CCCCCCC(*)=O)cc2)C(=O)OCCCCCC)cc1 (repeat unit)	27.00 °C
*CCCCCCCCCCCCC(c1ccc(O)cc1)C(*)c1ccc(O)cc1C (repeat unit)	-1.00 °C
*CC(*)(C)C(=O)OCCCCCCCCCCCOc1ccc2cc(C(=O)Oc3ccccc3)ccc2c1 (repeat unit)	10.00 °C
*c1ccc(-c2nc3cc(C(=O)c4ccc5nc(-c6ccccc6)c(-c6ccc(-n7c(=O)c8cc9c(=O)n(*)c(=O)c9cc8c7=O)cc6)nc5c4)ccc3nc2-c2ccccc2)cc1 (repeat unit)	240.00 °C
*Nc1ccc(Cc2ccc(NC(=O)c3cc(C(*)=O)cc(S(=O)(=O)c4ccccc4)c3)cc2)cc1 (repeat unit)	270.00 °C
*C(*)C(=O)OCCC (repeat unit)	-15.00 °C
*CC(*)(C)C(=O)OCC1(CC)COC1 (repeat unit)	105.00 °C
*c1ccc(Oc2ccc(N3C(=O)c4cccc(Oc5ccc(Oc6cccc7c6C(=O)N(*)C7=O)cc5)c4C3=O)cc2)cc1 (repeat unit)	254.00 ± 15 °C
*Nc1cc(NC(=O)c2ccc(-c3ccc(C(*)=O)cc3)cc2)cc(C(=O)OCCOc2ccc(/C=C/C(=O)c3ccccc3)cc2)c1 (repeat unit)	254.00 °C
*CCCCCC(*)CCCCCCCC (repeat unit)	-72.00 °C
*Oc1ccc(C(C)(C)c2ccc(OC(=O)c3ccc(CC(*)=O)cc3)cc2)cc1 (repeat unit)	85.00 °C
*CCCCCCCCCCCCNC(=O)c1ccc(C(=O)N*)c(Oc2ccccc2)c1 (repeat unit)	75.00 °C
*c1ccc(Oc2ccc(C(=O)c3ccc(Oc4ccc(N5C(=O)c6ccc(Oc7cccc(Oc8ccc9c(c8)C(=O)N(*)C9=O)c7)cc6C5=O)cc4)cc3)cc2)cc1 (repeat unit)	201.00 °C
*CC(*)(C)C(=O)OCCCCCCCCCC (repeat unit) [Poly(decyl methacrylate)]	-63.83 ± 1 °C

Compound	glass transition temperature
*Oc1ccc(C(C)(C)c2ccc(Oc3ccc(C(=O)c4c(C)ccc5c(C(=O)c6ccc(*)cc6)c(C)ccc45)cc3)cc2)cc1 (repeat unit)	222.00 °C
*CCCCCCCCOc1ccc(NC(=O)c2cccc(C(=O)Nc3ccc(O*)cc3)c2)cc1 (repeat unit)	128.00 °C
*OC(CCOc1ccccc1)CC(*)=O (repeat unit)	20.00 °C
*C1(F)OC(C(F)(F)F)(C(F)(F)Cl)OC1(*)F (repeat unit)	330.00 °C
*CCCCCCOP(=O)(/N=N/c1ccc(CCOC(=O)c2cc(C(=O)OCCc3ccc(/N=N/P(=O)(O*)OC)cc3)cc(C(C)(C)C)c2)cc1)OC (repeat unit)	47.00 °C
*Oc1ccc(CC(NC(=O)CCc2ccc(OC(=O)CCC(C)CC(*)=O)cc2)C(=O)OC)cc1 (repeat unit)	53.00 °C
*NC(CCC(=O)OCc1ccccc1)C(*)=O (repeat unit)	17.00 °C
*c1ccc(Oc2ccc(C(c3ccc(Oc4ccc(N5C(=O)c6ccc7c8c(ccc(c68)C5=O)C(=O)N(*)C7=O)cc4)cc3)(C(F)(F)F)C(F)(F)F)cc2)cc1 (repeat unit)	280.00 °C
*c1ccc(Oc2ccc(Oc3ccc(N4C(=O)c5ccc(Oc6ccc7c(c6)C(=O)N(*)C7=O)cc5C4=O)cc3)cc2)cc1 (repeat unit)	247.50 ± 6.6 °C
*c1ccc2c(c1)C(=O)N(c1cccc(C(=O)Nc3ccc(C(c4ccc(NC(=O)c5cccc(N6C(=O)c7ccc(C(*)(C(F)(F)F)C(F)(F)F)cc7C6=O)c5C)cc4)(C(F)(F)F)C(F)(F)F)cc3)c1C)C2=O (repeat unit)	250.00 °C
*/C=C(/*)c1ccccc1C(F)(F)F (repeat unit)	130.00 °C
*c1ccc(N2C(=O)c3ccc(Oc4ccc(Oc5ccc(P(=O)(c6ccccc6)c6ccc(Oc7ccc(Oc8ccc9c(c8)C(=O)N(*)C9=O)cc7)cc6)cc5)cc4)cc3C2=O)cc1 (repeat unit)	220.00 °C
*CCCCCNC(=O)CCCCCCCCCCCCCCCCCCC(=O)N* (repeat unit)	52.00 °C
*CC(*)(CC(=O)Oc1ccc(OCC)cc1)C(=O)Oc1ccc(OCC)cc1 (repeat unit)	110.50 °C
*CCN(CCOC(=O)Nc1ccc(Cc2ccc(NC(=O)O*)cc2)cc1)c1ccc(/N=N/c2ccc([N+](=O)[O-])cc2)c(C)c1 (repeat unit)	115.00 °C
*c1ccc2c(c1)C(=O)N(c1cccc(Oc3ccc(C(c4ccc(Oc5cccc(N6C(=O)c7ccc(C(*)(C(F)(F)F)C(F)(F)F)cc7C6=O)c5)cc4)(C(F)(F)F)C(F)(F)F)cc3)c1)C2=O (repeat unit)	224.00 °C
*Oc1ccc(C2(c3ccc(OC(=O)CCC(*)=O)cc3)c3ccccc3-c3ccccc32)cc1 (repeat unit)	234.00 °C
*c1cc(CCCCBr)c(*)s1 (repeat unit)	19.00 °C
*OC(=O)Oc1ccc(C(=O)Oc2ccc(OC(=O)OC3COC4C(*)COC34)cc2)cc1 (repeat unit)	115.00 °C
*c1ccc(-c2ccc(-c3nc4cc(Oc5ccc(NC(=O)c6ccc7c(c6)C(=O)N(c6ccc(C(c8ccc(N9C(=O)c%10ccc(C(=O)Nc%11ccc(Oc%12ccc%13nc(-c%14ccccc%14)c(*)nc%13c%12)cc%11)cc%10C9=O)cc8)(C(F)(F)F)C(F)(F)F)cc6)C7=O)cc5)ccc4nc3-c3ccccc3)cc2)cc1 (repeat unit)	290.00 °C
*CCCCOc1ccc(OCCCCc2nnc(-c3ccc(-c4nnc(*)o4)cc3)o2)c(C)c1 (repeat unit)	129.00 °C
*[Si](*)(C)CCC(F)(F)F (repeat unit)	-3.00 °C

Compound	glass transition temperature
*/C=C/C1CC(*)C2C(=O)N(c3ccccc3)C(=O)C12 (repeat unit)	220.00 °C
*CCC[Si](*)(c1ccc(C)cc1)c1ccc(C)cc1 (repeat unit)	38.00 °C
*CCN(CCOC(=O)Nc1ccc(C)c(NC(=O)O*)c1)c1ccc(-c2nc3ccc([N+](=O)[O-])cc3o2)cc1 (repeat unit)	156.00 °C
*CCCNC(=O)C(OC)C(OC)C(=O)N* (repeat unit)	123.00 °C
*Oc1ccc(S(=O)(=O)c2ccc(Oc3c(C)cc(C(C)(C)c4cc(C)c(*)c(C)c4)cc3C)cc2C(O)(C(F)(F)F)C(F)(F)F)c(C(O)(C(F)(F)F)C(F)(F)F)c1 (repeat unit)	187.00 °C
*Oc1ccc(OC(=O)c2ccc(C(C)(C)c3ccc(C(*)=O)cc3)cc2)cc1 (repeat unit)	195.00 °C
*CC(*)c1ccc(OC)cc1 (repeat unit) [Poly(p-methoxy styrene) ]	89 ± 12 °C
*C(=O)Nc1cccc(C(=O)Nc2cccc(NC(=O)c3ccc4[nH]c(-c5ccc(-c6nc7cc(*)ccc7[nH]6)cc5)nc4c3)c2)c1 (repeat unit)	312.00 °C
*C(=O)c1ccc2nc(-c3ccccc3)c(-c3ccc(-c4nc5ccc(*)cc5nc4-c4ccccc4)cc3)nc2c1 (repeat unit)	320.00 °C
*C(=O)c1ccc2c(c1)C(=O)N(c1cccc(Cc3ccc(C(=O)c4cccc(N5C(=O)c6ccc(*)cc6C5=O)c4)cc3)c1)C2=O (repeat unit)	265.50 °C
*c1ccc2c(c1)C(=O)N(c1cc(C)c(N3C(=O)c4ccc(C(*)(C(F)(F)F)C(F)(F)F)cc4C3=O)cc1C)C2=O (repeat unit)	367.00 ± 17 °C
*CCCCCCCCOc1ccc(CCc2ccc(O*)cc2C)cc1 (repeat unit)	-12.00 °C
*c1ccc(-c2nc3cc(Oc4ccc5nc(-c6ccccc6)c(*)nc5c4)ccc3nc2-c2ccccc2)cc1 (repeat unit)	304.00 °C
*OCC(F)(F)C(F)(F)C(F)(F)COc1nc(F)nc(*)c1F (repeat unit)	0.00 °C
*c1ccc2c(c1)C(=O)N(c1cccc(Oc3cccc(N4C(=O)c5ccc(C(F)(F)C(F)(F)C(*)(F)F)cc5C4=O)c3)c1)C2=O (repeat unit)	312.00 °C
*Oc1ccc(NC(=O)c2cccc(C(=O)Nc3ccc(Oc4ccc(C(=O)c5ccc(*)cc5)cc4)cc3)c2)cc1 (repeat unit)	145.00 °C
*c1ccc(Oc2ccc(-c3cc(-c4ccc(Oc5ccc(-c6cc(*)nc7ccccc67)cc5)cc4)c4ccccc4n3)cc2)cc1 (repeat unit)	300.00 °C
*Oc1ccc(NC(=O)c2ccc(OC3COC4C(Oc5ccc(C(=O)Nc6ccc(OC7COC8C(*)COC78)cc6)cc5)COC34)cc2)cc1 (repeat unit)	165.00 °C
*C/C=C(\C)CS(*)(=O)=O (repeat unit)	88.20 °C
*CCCN(*)C(=O)CC (repeat unit)	8.00 °C
